Earlier results, collected in patent US20030124075A1, “Use of a composition containing at least one oxidation-sensitive hydrophilic active principle and at least one N-vinylimidazole polymer or copolymer” (L'OREAL, priority 2001, published 2003).

Experiments:
tyrosinase = target: T1, tyrosinase (Homo sapiens, UniProt P14679); conditions: J. Soc. Cosmet. Chem., 42, 1991
T1 sequence (P14679 19-529): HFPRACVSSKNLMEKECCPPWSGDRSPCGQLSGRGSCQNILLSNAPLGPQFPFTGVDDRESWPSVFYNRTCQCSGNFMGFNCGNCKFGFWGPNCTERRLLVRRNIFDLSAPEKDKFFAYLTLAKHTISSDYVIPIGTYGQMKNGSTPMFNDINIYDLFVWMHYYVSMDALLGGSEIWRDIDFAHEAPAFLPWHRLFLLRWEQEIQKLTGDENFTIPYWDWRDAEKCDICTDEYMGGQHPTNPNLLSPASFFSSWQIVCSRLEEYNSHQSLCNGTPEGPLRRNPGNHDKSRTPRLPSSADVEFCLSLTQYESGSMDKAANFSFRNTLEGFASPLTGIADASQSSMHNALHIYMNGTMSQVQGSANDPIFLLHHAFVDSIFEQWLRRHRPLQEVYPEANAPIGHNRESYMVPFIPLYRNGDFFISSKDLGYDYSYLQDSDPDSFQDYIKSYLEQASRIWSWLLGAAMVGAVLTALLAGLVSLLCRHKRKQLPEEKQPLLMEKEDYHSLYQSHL

[1] = J. Am. Acad. Dermatol., 1996, 34, 29-33
melanocytes = conditions: Pigment. Cell. Res., 13, 2000

Structure (SMILES) | inhibiting effect on tyrosinase (tyrosinase) | bioavailability [1] | dendricity of melanocytes (melanocytes)
O=C1O[C@H]([C@@H](O)CO)C(O)=C1O [ascorbic acid] | has been demonstrated |  | 
O=C1O[C@H]([C@@H](O)CO)C([O-])=C1OP(=O)([O-])[O-].O=C1O[C@H]([C@@H](O)CO)C([O-])=C1OP(=O)([O-])[O-].[Mg+2].[Mg+2].[Mg+2] [magnesium ascorbyl phosphate] |  | very low | can reduce the dendricity of melanocytes
